Patent US5473074A, “Adenosine diphosphoribose polymerase binding nitroso aromatic compounds useful as retroviral inactivating agents, anti-retroviral agents and anti-tumor agents-54” (priority 1992, dated 1995)

How the values were obtained:
[1] = system: human leukemia cell lines (855-2, H9, HL-60, K562); assay: [3H]thymidine uptake, human leukemia cell lines (FIG. 2); assay type: cell-based
Experimental: FIGS. 2A-2F are composite of graphs displaying the inhibitory effects of the ADRPT ligands on (FIG. 2A) 855-2 cells (a cell line of human B-cell lineage acute lymphoblastic leukemia), (FIG. 2B) H9 cells (a cell line of human T-cell lineage acute lymphoblastic leukemia), (FIG. 2C) HL-60 cells (a cell line of human acute nonlymphoblastic leukemia) and (FIG. 2D) K562 cells (a cell line of human chronic myelogenous leukemia). These cells were cultured while under the influence of the growth factors in 10% fetal bovine serum (FCS), whereas in (FIG. 2E) and (FIG. 2F) the 855-2 cells were cultured in the presence of autocrine growth factor activity (AGF) or low molecular weight-B-cell growth factor (BCGF, a T-cell derived lymphokine), respectively.

855-2 cells [2] = assay: [3H]thymidine uptake / growth, 855-2 cells; assay type: cell-based, human
855-2 cells [3] = assay: Colony formation (CFU) in semi-solid medium, 855-2; assay type: cell-based, human; conditions: single cells in semi-solid medium
L1210 murine leukemia = L1210 murine leukemia in vivo in BDF mice; set-up: species or system mouse; conditions: 2 mg/kg i.p. twice a day
HIV-1 = assay: Anti-HIV action on stimulated human lymphoblasts, virus titer; assay type: cell-based; conditions: 10 μM; 30 min exposure; virus alone 5.25
Experimental: VIII. Anti-HIV action of NOBP, NOBA and NOQ on stimulated human lymphoblasts
Exposure to the two drugs was only for 30 minutes at the commencement of viral infection, and drugs were never re-added. The results given in Table III provide the ID50 of HIV titer 10 days after infection of cell cultures with HIV.

[4] = molecular target: Zn(HIV1-F1), N-terminal CCHC zinc finger of the HIV-1 NC protein (Human immunodeficiency virus type 1 lw12.3 isolate, UniProt Q70622); assay: NMR studies of zinc ejection from Zn(HIV1-F1); assay type: biochemical; conditions: 2 mM NOBA
Experimental: The * and + symbols denote the aromatic proton signals of the zinc-coordinated and zinc-free His 9 residue. Upon completion of the reaction, reflected by complete ejection of zinc (t=90 min), 50% of the NOBA remained unreacted indicating a 1:1 reaction stoichiometry. NOBA (3-nitrosobenzamide), was synthesized described elsewhere in this application.
To determine if NOBA is capable of ejecting zinc from retroviral-type zinc fingers, NMR studies were performed on a peptide with amino acid sequence corresponding to the N-terminal CCHC zinc finger of the HIV-1 NC protein, Zn(HIV1-F1), South, et al., J. Am. Chem. Soc. 111:395-396 (1989), South, et al., Biochem Pharm. 40:123-129 (1990), Summers, et al., Biochemistry 29:329-340 (1990). NMR spectra of Zn(HIV-F1) were performed before and after the addition of NOBA (3-nitrosobenzamide). […] Chem Soc. 111:395-396 (1989), and three-dimensional structural studies have shown that the peptide adopts a structure that is essentially identical to the structure of the corresponding region in the intact NC protein, South, et al., Biochemistry 29:7786-7789 (1990). The down-field region of the ^1 H NMR spectrum showing the signals due to the aromatic proton of His 9 and Phe 2 is illustrated in FIG. 10 (bottom). […]

calf thymus ADPRT = calf thymus ADPRT (Bos taurus, UniProt P18493); assay: ADPRT polymerase activity inhibition/inactivation (I50)
calf thymus ADPRT, sequence (P18493 whole entry): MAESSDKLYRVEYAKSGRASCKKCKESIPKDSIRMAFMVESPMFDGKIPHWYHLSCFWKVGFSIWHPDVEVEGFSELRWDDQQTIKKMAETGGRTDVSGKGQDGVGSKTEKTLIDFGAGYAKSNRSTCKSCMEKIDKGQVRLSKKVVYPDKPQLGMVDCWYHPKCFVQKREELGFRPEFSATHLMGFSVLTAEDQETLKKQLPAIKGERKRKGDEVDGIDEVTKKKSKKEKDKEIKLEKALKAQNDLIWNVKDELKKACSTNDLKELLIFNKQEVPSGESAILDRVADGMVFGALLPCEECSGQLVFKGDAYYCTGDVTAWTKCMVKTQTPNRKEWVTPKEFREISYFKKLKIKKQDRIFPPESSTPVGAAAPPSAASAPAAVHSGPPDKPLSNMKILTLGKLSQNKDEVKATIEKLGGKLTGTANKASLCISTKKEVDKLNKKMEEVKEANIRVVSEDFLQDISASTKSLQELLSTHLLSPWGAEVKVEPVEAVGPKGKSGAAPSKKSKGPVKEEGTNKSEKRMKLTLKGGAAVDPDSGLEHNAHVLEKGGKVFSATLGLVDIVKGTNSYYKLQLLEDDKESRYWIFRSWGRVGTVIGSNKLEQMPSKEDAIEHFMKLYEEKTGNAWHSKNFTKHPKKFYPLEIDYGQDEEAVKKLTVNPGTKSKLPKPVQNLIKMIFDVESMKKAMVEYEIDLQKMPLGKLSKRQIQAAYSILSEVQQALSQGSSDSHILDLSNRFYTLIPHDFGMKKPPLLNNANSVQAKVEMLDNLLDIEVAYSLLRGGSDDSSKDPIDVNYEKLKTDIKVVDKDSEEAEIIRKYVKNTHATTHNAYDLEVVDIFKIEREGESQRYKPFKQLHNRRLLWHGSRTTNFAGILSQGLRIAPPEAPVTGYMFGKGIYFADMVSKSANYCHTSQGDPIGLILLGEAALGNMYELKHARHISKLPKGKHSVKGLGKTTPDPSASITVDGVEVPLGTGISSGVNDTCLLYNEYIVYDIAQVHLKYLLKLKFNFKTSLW
Experimental: The compounds of the subject invention were tested for their ability to inactivate the polymerase activity of adenosinediphosphoribosyl transferase (ADPRT). Assays were performed according to the method of Buki and Kun, Biochem. 27:5990-5995 (1988), using calf thymus ADPRT.
Assay conditions: ADPRT, 0.4 μg; coDNA, 4 μg; inhibitor diluted
between 0.8 and 600 μM, in 50 μl of 50 mM TrisHCl, 50 mM KCl, 5 mM
2mercaptoethanol, 0.5 mM EDTA, 0.1 mM NAD ([32Plabelled), pH 7.5.
Polymerization at 25° C. for 4 minutes.

NC(=O)c1cccc(N=O)c1 [NOBA, 3-nitrosobenzamide]
inhibition of 3H-thymidine uptake, in words ([1]; 10 μM, 855-2, H9, HL-60, K562 cells): powerfully inhibited 3H-thymidine uptake
molar concentrations needed to inhibit 3H-thymidine uptake, in words ([1]; each of the cell lines tested): able to inhibit 3H-thymidine uptake in lower molar concentrations than the other compounds
growth arrest of 855-2 cells at increasing serum concentration (855-2 cells [2]; 10 μM, increasing FCS): Growth arrest occurs irrespective of the concentration of FCS
relative potency, 855-2 (855-2 cells [2]; 10% fetal bovine serum): potent inhibitory effects regardless of the source of growth factor activity
colony formation, 855-2, in words (855-2 cells [3]): inhibit the ability of human leukemic cells (855-2 and HL-60) to form colonies
life span of L1210-bearing BDF mice (L1210 murine leukemia; 6 consecutive days, untreated 10 days, 35 days = end of observation): 35 days
in vivo chemotherapeutic response, in words (L1210 murine leukemia; 6 days): highly significant in vivo chemotherapeutic response
toxic effects in mice (L1210 murine leukemia; 6 days): no toxic effects
Virus Titer (log ID50), 10 days (HIV-1): 1.05 log ID50
time of complete ejection of zinc from Zn(HIV1-F1) ([4]; 1 mM Zn(HIV1-F1), D2O, pH* 6.2, 30° C.): 90 min
NOBA remaining unreacted ([4]; 90 min): 50%
IC50 (calf thymus ADPRT): 15 µM
